Laboratory results as given in patent publication US20250145566A1, “PHENETHYLAMINE DERIVATIVES, COMPOSITIONS, AND METHODS OF USE” (Cybin IRL Limited, priority 2022, published 2025).
Like-named read-outs stand apart in the source and are kept apart here.

Tests used:
5-HT2A (h) [1] = molecular target: T1, 5-HT2A (h) (Homo sapiens, UniProt P28223); assay: 5-HT2A (h) agonist radioligand [125I](±)DOI binding; details: Hill coefficient; reference compound result
T1 construct: expressed in transfected cells; host or cells: HEK-293 cells

5-HT2B (h) = molecular target: T2, 5-HT2B (h) (Homo sapiens, UniProt P41595); assay: 5-HT2B (h) agonist radioligand [125I](±)DOI binding; details: reference compound result
T2 construct: expressed in transfected cells; host or cells: CHO cells
Method: (§1) Samples were then analyzed as described above.

5-HT2C (h) [2] = molecular target: T3, 5-HT2C (h) (Homo sapiens, UniProt P28335); assay: 5-HT2C (h) agonist radioligand [125I](±)DOI binding; details: reference compound result
T3 construct: expressed in transfected cells; host or cells: HEK-293 cells
T3 sequence (P28335 33-458): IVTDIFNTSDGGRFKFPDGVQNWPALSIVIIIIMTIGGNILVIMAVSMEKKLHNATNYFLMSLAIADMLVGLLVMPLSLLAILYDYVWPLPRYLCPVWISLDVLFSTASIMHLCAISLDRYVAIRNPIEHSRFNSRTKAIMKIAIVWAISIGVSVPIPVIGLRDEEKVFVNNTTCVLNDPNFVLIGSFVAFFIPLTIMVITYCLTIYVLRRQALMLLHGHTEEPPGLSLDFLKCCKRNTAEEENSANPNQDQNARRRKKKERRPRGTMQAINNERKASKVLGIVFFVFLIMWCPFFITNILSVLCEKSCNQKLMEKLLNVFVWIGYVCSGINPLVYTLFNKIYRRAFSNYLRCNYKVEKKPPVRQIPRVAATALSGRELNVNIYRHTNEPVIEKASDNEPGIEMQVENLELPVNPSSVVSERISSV
Method: as §1

dopamine transporter (h) = molecular target: T4, dopamine transporter (h) (Homo sapiens, UniProt Q01959); assay: dopamine transporter (h) binding, [3H]BTCP; details: Hill coefficient; reference compound result
T4 construct: expressed in transfected cells; host or cells: CHO cells

MAO-A = molecular target: T5, MAO-A (Homo sapiens, UniProt P21397); assay: Recombinant human MAO-A in vitro metabolism; type: in vitro ADME; details: human, recombinant human MAO-A
T5 construct: purchased XenoTech (first series); Corning (second series) Corning 456283
T5 sequence (P21397 1-527): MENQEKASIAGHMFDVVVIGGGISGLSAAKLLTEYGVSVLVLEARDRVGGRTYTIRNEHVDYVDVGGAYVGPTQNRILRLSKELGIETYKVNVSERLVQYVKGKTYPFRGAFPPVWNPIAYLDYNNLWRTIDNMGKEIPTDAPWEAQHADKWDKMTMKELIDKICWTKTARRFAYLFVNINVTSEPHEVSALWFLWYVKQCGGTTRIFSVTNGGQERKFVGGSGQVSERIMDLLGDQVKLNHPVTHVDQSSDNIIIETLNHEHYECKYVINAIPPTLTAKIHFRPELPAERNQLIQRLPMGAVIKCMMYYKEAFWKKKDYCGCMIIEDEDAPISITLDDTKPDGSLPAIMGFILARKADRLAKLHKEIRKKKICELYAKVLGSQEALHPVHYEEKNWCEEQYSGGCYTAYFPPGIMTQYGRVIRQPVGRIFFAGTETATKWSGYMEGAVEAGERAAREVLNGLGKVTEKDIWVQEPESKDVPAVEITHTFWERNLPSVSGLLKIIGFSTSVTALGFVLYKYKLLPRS
Method: Recombinant human MAO-A. hrMAO-A and MAO control were purchased from XenoTech. The reaction mixture was prepared as described in Table 11. The test compound was added into the reaction mixture at a final concentration of 1 μM. The positive control kynuramine (25 μM) was run simultaneously with the test compound in a separate reaction. The reaction mixture (without test compounds or kynuramine) was equilibrated in a shaking water bath at 37° C. for 5 minutes. The reaction was initiated by the addition of the test compound or kynuramine, and the mixture was incubated in a shaking water bath at 37° C. Aliquots (150 μL) of the test compound reaction mixture were withdrawn at 0, 5, 10, 20, 30, 60, and for some assays at 120 minutes. Aliquots (150 μL) of the positive control reaction mixture were withdrawn at 0 and 30 minutes. Test compound and kynuramine samples were immediately combined with 150 μL of ice-cold 100% acetonitrile containing 0.1% formic acid and internal standard (0.2 μM metoprolol) to terminate the reaction. The samples were then mixed and centrifuged to precipitate proteins. All samples were assayed by LC-MS/MS. The peak area response ratio (PARR) of analyte to internal standard at each time point was compared to the PARR at time 0 to determine the percent remaining at each time point. Half-lives were calculated using GraphPad software, fitting to a single-phase exponential decay equation.
(§2) In a different series of reactions using human MAO-A and MAO-B, a 10 mM stock solution of the test compound was prepared in DMSO. From this stock solution, an intermediate stock solution of 1 mM was prepared by diluting the compound in DMSO and from this intermediate stock solution, a working solution of 0.30 mM was prepared by diluting the compound in ACN:Water (50:50) as cocktail of 2 compounds (30 μL each compound in 40 μL diluent for 100 μL). Following this, a master mix of 0.1 M potassium phosphate buffer and test compound mixture i.e., the non-deuterated and the deuterated analog, were prepared to achieve final drug concentration of 1 μM (0.2% DMSO) for the required number of reactions. The aforementioned master mix was pre-incubated at 37° C. for 5 min. To this master mix, MAO-A (final protein conc. 0.1 mg/mL; Corning Cat #456283; Lot #1173003) or MAO-B (final protein conc. 0.1 mg/mL; Corning Cat #456284; Lot #0318001) was added to initiate the reaction. The samples were then incubated at 37° C. for the desired time points. At each time point (0, 5, 15, 30, 45, 60), 40 μL of the samples were withdrawn and reactions were stopped using 200 μL chilled ACN containing 0.1% formic acid and internal standard Carbamazepine (10 ng/mL). The samples were centrifuged, and the supernatant was analyzed by LC-MS/MS. The percent compound remaining at each time point was calculated with respect to that of the 0 min sample. The data were then analyzed to calculate half-life and intrinsic clearance (CLint). Blank samples were prepared using DMSO (without the test compound).

MAO-B = molecular target: T6, MAO-B (Homo sapiens, UniProt P27338); assay: human MAO-B in vitro metabolism; type: in vitro ADME; details: human MAO-B enzyme (Corning), test compound 1 μM, read-out: MAO-B t1/2
T6 construct: purchased Corning 456284
T6 sequence (P27338 1-520): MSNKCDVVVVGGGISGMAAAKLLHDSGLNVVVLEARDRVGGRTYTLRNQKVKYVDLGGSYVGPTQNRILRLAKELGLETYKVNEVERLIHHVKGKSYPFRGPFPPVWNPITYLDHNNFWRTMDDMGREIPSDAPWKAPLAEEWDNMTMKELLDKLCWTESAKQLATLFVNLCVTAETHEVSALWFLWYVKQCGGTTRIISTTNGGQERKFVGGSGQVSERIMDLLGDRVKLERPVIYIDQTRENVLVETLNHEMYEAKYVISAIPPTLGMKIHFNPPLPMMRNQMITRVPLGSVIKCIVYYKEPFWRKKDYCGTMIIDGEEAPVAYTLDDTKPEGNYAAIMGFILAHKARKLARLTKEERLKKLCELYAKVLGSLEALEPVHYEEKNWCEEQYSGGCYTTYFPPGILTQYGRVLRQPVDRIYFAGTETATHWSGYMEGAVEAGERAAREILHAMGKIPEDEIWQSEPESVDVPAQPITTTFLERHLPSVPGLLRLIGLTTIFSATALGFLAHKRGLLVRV
Method: as §2

[3] = Rat liver microsomes (RLM) in vitro metabolism; type: in vitro ADME; details: Sprague-Dawley, pH 7.4; rat liver microsomes, test compound 1 μM; * = apparent NADPH independent reaction; read-out: RLM t1/2
Method: (§3) Rat Liver Microsomes (RLM). Male Sprague-Dawley rat liver microsomes were purchased from XenoTech. The reaction mixture, minus NADPH, was prepared as described in Table 10. The test compound was added into the reaction mixture at a final concentration of 1 μM. The control compound, testosterone, was run simultaneously with the test compound in a separate reaction. The reaction mixture (without cofactor) was equilibrated in a shaking water bath at 37° C. for 5 minutes. The reaction was initiated by the addition of the cofactor, and the mixture was incubated in a shaking water bath at 37° C. Aliquots (150 μL) were withdrawn at 0, 5, 10, 20, 30, 60, and for some assays at 120 minutes. Test compound and testosterone samples were immediately combined with 150 μL of ice-cold acetonitrile (ACN) containing 0.1% formic acid and internal standard to terminate the reaction. The samples were then mixed and centrifuged to precipitate proteins. All samples were assayed by LC-MS/MS using electrospray ionization. The peak area response ratio (PARR) of analyte to internal standard at each time point was compared to the PARR at time 0 to determine the percent remaining at each time point. Half-lives were calculated using GraphPad software, fitting to a single-phase exponential decay equation.
(§4) In a different series of reactions using RLM, a 10 mM stock solution of the test compound was prepared in DMSO. From this stock solution, an intermediate stock solution of 1 mM was prepared by diluting the compound in DMSO and from this intermediate stock solution, a working solution of 0.30 mM was prepared by diluting the compound in ACN:Water (50:50) as a cocktail of two compounds (i.e., 30 μL the non-deuterated and the deuterated compound in 40 μL diluent in 100 μL total volume). Following this, a master mix of rat liver microsomes (final concentration 0.5 mg/ml, Xenotech Cat #R1000; Lot #1610290) and 0.1 M potassium phosphate buffer was prepared and pre-incubated for 5 min at 37° C. The test compound mixture was then added to achieve a final test article concentration of 1 μM (for each analog if co-dosed; 0.2% DMSO); verapamil was used as a positive control. Subsequently, 10 mM NADPH prepared in 0.1 M potassium phosphate buffer was added (final concentration 1 mM) to initiate the reaction and samples were incubated at 37° C. for the desired time points (0, 5, 15, 30, 45, 60 min). At each time point, 40 μL of the samples were withdrawn and reactions were stopped using 200 μL chilled ACN containing 0.1% formic acid and internal standard carbamazepine (10 ng/mL). The samples were centrifuged, and the supernatant was analyzed by LC-MS/MS. The percent compound remaining at each time point was calculated with respect to that of the 0 min sample. The data were then analyzed to calculate half-life. Blank samples were prepared using DMSO (without the test compound).

Rat Liver Microsomes = assay: Rat liver microsomes (RLM) in vitro metabolism; type: in vitro ADME; details: result in words
Method: as §3, §4

[4] = molecular target: Norepinephrine transporter (Homo sapiens, UniProt P23975); details: read-out: Function NET IC50; literature, racemic; cited from earlier work
Dopamine transporter = Dopamine transporter (Homo sapiens, UniProt Q01959); details: variable numbers in the literature, racemic, cited from earlier work
5-HT2C (h) [5] = molecular target: T3, 5-HT2C (h); details: literature, single enantiomers; cited from earlier work
5-HT2A (h) [6] = molecular target: T1, 5-HT2A (h); details: literature, single enantiomers, cited from earlier work; for EC50: read-out: Function 5-HT2A EC50
5-HT transporter (h) = molecular target: T7, 5-HT transporter (h) (Homo sapiens, UniProt P31645); assay: 5-HT transporter (h) binding, [3H]imipramine; details: Hill coefficient; reference compound result
T7 construct: expressed in transfected cells; host or cells: CHO cells

[7] = agonist radioligand [125I](±)DOI
[8] = 1 μM test compound, read-out: half-life, MAO-A metabolism
[9] = human recombinant MAO-A, test compound 1 μM, read-out: MAO-A t1/2

T1 sequence (P28223 whole entry): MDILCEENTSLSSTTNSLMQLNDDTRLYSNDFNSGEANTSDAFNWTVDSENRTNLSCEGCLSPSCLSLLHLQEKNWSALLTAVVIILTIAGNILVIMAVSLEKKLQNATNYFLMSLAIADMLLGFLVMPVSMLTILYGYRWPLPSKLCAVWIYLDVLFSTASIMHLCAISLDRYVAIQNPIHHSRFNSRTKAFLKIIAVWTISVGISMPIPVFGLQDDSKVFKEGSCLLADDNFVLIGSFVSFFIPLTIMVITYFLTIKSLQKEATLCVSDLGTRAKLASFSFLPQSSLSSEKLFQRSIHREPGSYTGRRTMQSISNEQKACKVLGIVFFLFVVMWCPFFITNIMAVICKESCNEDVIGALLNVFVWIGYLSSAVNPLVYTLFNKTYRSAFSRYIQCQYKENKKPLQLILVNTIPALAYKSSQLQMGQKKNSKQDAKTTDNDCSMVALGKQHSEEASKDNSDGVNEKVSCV
T2 sequence (P41595 whole entry): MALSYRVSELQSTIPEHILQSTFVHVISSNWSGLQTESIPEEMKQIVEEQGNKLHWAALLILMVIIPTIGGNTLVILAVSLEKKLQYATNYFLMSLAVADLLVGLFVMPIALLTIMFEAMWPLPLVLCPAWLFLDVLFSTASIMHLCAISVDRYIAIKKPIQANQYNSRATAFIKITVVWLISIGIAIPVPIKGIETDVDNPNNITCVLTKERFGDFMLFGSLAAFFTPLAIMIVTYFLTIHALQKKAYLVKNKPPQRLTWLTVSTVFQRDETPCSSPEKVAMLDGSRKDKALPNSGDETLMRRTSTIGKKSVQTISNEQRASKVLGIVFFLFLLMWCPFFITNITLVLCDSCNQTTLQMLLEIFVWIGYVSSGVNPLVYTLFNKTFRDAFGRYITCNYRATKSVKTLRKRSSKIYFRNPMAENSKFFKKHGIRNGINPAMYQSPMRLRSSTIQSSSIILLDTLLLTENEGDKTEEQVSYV
Sequence of Dopamine transporter (Q01959 whole entry): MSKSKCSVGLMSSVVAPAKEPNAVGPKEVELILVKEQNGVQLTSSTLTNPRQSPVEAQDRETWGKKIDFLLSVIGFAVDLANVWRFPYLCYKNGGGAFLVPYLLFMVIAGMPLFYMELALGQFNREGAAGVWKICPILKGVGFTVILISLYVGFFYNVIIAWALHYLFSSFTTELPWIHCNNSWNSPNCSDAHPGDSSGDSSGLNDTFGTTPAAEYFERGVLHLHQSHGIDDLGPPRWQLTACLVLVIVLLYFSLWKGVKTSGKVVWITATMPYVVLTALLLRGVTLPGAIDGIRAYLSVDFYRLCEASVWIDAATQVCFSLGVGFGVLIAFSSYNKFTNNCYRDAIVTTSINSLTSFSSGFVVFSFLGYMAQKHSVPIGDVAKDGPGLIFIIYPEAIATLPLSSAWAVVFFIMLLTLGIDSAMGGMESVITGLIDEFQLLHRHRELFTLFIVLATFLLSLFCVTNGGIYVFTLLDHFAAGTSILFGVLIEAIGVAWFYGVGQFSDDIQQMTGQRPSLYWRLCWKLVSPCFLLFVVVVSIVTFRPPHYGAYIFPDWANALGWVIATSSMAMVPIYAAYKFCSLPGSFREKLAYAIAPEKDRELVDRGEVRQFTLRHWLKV
T7 sequence (P31645 whole entry): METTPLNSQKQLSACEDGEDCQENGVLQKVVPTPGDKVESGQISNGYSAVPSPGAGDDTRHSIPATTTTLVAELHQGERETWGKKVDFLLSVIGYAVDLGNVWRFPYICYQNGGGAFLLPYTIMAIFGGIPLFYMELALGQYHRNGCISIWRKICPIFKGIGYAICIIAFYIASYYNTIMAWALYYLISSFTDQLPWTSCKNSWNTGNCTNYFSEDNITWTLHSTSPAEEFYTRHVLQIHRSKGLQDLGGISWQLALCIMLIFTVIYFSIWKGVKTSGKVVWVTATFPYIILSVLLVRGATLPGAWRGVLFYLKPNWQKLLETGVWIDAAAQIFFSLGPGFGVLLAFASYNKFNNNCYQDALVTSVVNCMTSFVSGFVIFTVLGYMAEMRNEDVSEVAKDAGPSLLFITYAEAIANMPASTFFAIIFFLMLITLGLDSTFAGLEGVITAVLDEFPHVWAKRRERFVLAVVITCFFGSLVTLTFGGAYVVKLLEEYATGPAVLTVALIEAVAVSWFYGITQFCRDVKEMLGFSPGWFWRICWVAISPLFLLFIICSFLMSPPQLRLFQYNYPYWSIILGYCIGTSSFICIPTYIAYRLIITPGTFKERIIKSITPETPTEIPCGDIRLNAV
T4 sequence (Q01959 whole entry): as the sequence (Q01959 whole entry) above
Sequence of Norepinephrine transporter (P23975 whole entry): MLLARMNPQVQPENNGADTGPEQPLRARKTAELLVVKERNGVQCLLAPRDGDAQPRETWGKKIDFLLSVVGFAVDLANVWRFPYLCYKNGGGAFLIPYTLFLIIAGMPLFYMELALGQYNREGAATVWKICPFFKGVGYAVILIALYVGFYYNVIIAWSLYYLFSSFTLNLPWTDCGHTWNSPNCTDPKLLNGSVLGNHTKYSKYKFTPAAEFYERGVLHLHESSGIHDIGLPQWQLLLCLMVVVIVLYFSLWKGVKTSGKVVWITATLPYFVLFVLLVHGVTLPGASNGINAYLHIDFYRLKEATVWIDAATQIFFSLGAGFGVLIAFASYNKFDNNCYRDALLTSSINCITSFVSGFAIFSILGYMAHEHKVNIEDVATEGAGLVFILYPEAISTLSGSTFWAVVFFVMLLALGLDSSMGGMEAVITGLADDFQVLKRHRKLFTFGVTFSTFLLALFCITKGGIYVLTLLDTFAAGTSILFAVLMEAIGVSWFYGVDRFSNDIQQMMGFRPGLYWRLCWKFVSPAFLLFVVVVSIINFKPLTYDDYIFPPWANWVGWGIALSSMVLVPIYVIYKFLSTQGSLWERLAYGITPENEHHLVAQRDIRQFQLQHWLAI

## COc1cc(CC(C)N)c(OC)cc1I (racemic) [(±)DOI]
5-HT2A (h) [1]
  nH: 1.0
5-HT2B (h); Hill coefficient
  nH: 1.1
5-HT2B (h); [7]
  IC50: 0.0038 µM
  Ki: 0.0019 µM
5-HT2C (h) [2]; Hill coefficient
  nH: 0.9
5-HT2C (h) [2]; [7]
  IC50: 0.00037 µM
  Ki: 0.00033 µM

## c1ccc2sc(C3(N4CCCCC4)CCCCC3)cc2c1 [BTCP, reference compound]
Dopamine transporter (h)
  nH: 1.0

## [2H]C1([2H])Oc2ccc(CCN)cc2O1 [II-11, 2-(benzo[d][1,3]dioxol-5-yl-2,2-d2)ethan-1-amine]
MAO-A; [8]
  half-life at 1 µM: ≤ 8 min
MAO-A; [9]
  half-life at 1 µM: 7.97 min
MAO-B
  half-life at 1 µM: < 5 min
[3]
  half-life at 1 µM: < 5 min
Rat Liver Microsomes
  disappearance in RLM, NADPH dependence: NADPH-independent

## CC(N)Cc1ccc2c(c1)OCO2 (stereo not shown) [MDA, 3,4-methylenedioxyamphetamine]
[4]
  IC50: ~0.3 µM
Dopamine transporter; read-out: Function DAT IC50, lower end of literature range
  IC50: ≥ 0.89 µM
Dopamine transporter; read-out: Function DAT IC50, upper end of literature range
  IC50: ≤ 21 µM

## CN[C@H](C)Cc1ccc2c(c1)OCO2 [R-MDMA]
5-HT2C (h) [5]
  Function 5-HT2C EMAX: EMAX = 27%
5-HT2A (h) [6]
  Function 5-HT2A EMAX: EMAX = 21%
  EC50: 3.1 µM

## NCCc1ccc2c(c1)OCO2 [Reference Compound 5, 3,4-Methylenedioxyphenethylamine, reference compound]
MAO-A; [8]
  half-life at 1 µM: ≤ 8 min
MAO-A; [9]
  half-life at 1 µM: 8.34 min
MAO-B
  half-life at 1 µM: 7.91 min
[3]
  half-life at 1 µM: < 5 min
Rat Liver Microsomes
  disappearance in RLM, NADPH dependence: NADPH-independent

## CN[C@@H](C)Cc1ccc2c(c1)OCO2 [S-MDMA]
5-HT2C (h) [5]
  Function 5-HT2C EMAX: EMAX = 53%
5-HT2A (h) [6]
  Function 5-HT2A EMAX: EMAX = 9%
  EC50: 10.3 µM

## CN(C)CCCN1c2ccccc2CCc2ccccc21 [imipramine, reference compound]
5-HT transporter (h)
  nH: 1.2
